Measurements reported in patent US6541463B1, “Inhibitors of type 5 and type 3 17β-hydroxysteroid dehydrogenase and methods for their use” (Endorecherche, Inc., priority 1998, dated 2003).

How the values were obtained:
[1] = target: T1, human type 2 17β-hydroxysteroid dehydrogenase (Homo sapiens, UniProt P37059); test: Enzymatic assay for type 2 17β-HSD; format: biochemical; details: Table 4′; bracketed values, 3 · 10^−8M
T1 construct: expressed in transfected cells; host or cells: 293 cells, transient transfection; microsomal fraction (100 000×g pellet)
T1 sequence (P37059 1-387): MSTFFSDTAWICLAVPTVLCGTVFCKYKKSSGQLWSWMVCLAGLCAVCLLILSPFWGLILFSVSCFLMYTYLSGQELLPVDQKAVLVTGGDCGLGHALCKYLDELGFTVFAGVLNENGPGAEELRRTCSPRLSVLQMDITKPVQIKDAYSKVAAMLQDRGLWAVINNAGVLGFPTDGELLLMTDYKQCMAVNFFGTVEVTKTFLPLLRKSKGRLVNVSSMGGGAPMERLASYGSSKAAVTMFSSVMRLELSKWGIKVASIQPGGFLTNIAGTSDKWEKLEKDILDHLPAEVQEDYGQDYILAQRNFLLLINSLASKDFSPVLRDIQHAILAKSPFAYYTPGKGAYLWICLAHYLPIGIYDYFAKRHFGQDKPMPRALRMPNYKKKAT
Protocol: The manner in which IC50 was determined is described in “Efficacy of Preferred Inhibitors: VI. Enzymatic assay for types 1, 2, and 3 17β-HSD and types 1 and 3 3α-HSD”. […] numbers of IC50 are desirable. Blank means that a determination was not done. […]
Enzyme sources. 293 cells transiently transfected with expression vectors encoding types 1, 2 and 3 17β-HSD (Luu-The et al., J. Steroid Biochem. Molec. Biol., 55: 581-587, 1995), types 1 and 2 5α-reductase (Luu-The et al., J. Invest. Dermatol., 102: 221-226, 1994) and types 1 and 3 3α-HSD (Dufort et al. Biochem. Biophys. Res. Commun. 228: 474-479, 1996), using the calcium phosphate procedure (Kingston et al., In: Current Protocols in Molecular Biology. Edited by E. M. Ausbel, R. Brent, R. E. Kingston, D. D. Moore, J. G. Seidman, J. A. Smith, K. Struhl. John Wiley & Sons, New York, pp. 9.1.1-9.1.9, 1991; Luu-The et al., J. Invest. Dermatol., 102: 221-226, 1994). For assays using cell subfractions, cells were sonicated in 50 mM sodium phosphate buffer (pH 7.4), containing 20% glycerol and 1 mM EDTA and centrifuged at 10 000×g for 30 min before centrifugation for 100 000×g for 1 h to separate the mitochondrial and microsomal fractions, respectively. The cytosol fractions (100 000×g supernatant) was used to determine type 1 activity while the microsomal fraction (pellet at 100 000×g) was used for measurement of types 2 and 3 17β-HSD activities.
Incubation. The enzymatic reaction was carried out at 37° C. in 1 ml of 50 mM sodium phosphate buffer, pH 7.4, containing 20% glycerol, 1 mM EDTA, and 2 mM cofactors (NADPH or AND^+) for 1 h in the presence of 0.1 μM ^14C-labeled substrate: estrone and 4-dione for types 1 and […] 17β-HSD, respectively, testosterone for type 2 17β-HSD as well as types 1 and 2 5α-reductases, DHT for types 1 and 3 3α-HSD activities, and the indicated concentration of inhibitor.
Extraction of metabolites, migration on TLC and quantification were as described above for the assay of type 5 17β-HSD.

[2] = tested on: Shionogi mouse mammary carcinoma cells; test: Androgenic activity: stimulation of proliferation of Shionogi cells; format: cell-based
Protocol: In column 9, the androgenic activity of preferred type 5 inhibitors expressed as the percentage of stimulation of proliferation of Shionogi cells at concentrations of 10^−7 M (left number) and 10^−6 M (right number) of inhibitor. The manner in which the stimulation is determined is described in “Other Tests; B-Androgenic/Antiandrogenic Activity”. Lower numbers are desirable. ND means that a determination was not done.
(§1) Androgenic/antiandrogenic activity of some preferred compounds has been measured using the Shionogi mouse mammary carcinoma cells.
(§2) Minimal essential culture medium (MEM), non-essential amino acids, and fetal calf serum were purchased from Flow Laboratories. In order to remove endogenous steroids, serum was incubated overnight at 4° C. with 1% activated charcoal (Norit A, Fisher) and 0.1% Dextran T-70 (Pharmacia). A 2-h supplementary adsorption was performed at 25° C. in order to further remove protein-bound steroids. Serum was also inactivated by a 20-min incubation at 56° C.
(§3) 5α-dihydrotestosterone (DHT) was obtained from Steraloids. The antiandrogen hydroxyflutamide (OH-FLU) was kindly supplied by Drs. T. L. Nagabuschan and R. Neri (Schering Corporation, Kenilworth, U.S.A.).
(§4) Shionogi male mice bearing androgen-sensitive mammary tumors were obtained from Drs. Keishi Matsumoto, Osaka, Japan, and Yvonne Lefebvre, Ottawa, Canada. For primary culture, tumors were excised and washed in ice-cold sterile 25 mM Hepes buffer (137 mM NaCl; 5 mM KCl; 0.7 mM Na2HPO4; 10 mM glucose, pH 7.2). After mincing with scissors, the tumor minces were digested for 2 h at 37° C. in Hepes buffer containing 3.8 mg/ml collagenase (Clostridium, Boehringer), 1.5 mg/ml hyaluronidase II (Sigma), and 3% bovine serum albumin fraction V (Schwartz-Mann). Dispersed cells were collected by centrifugation (500×g for 10 min), washed twice by suspension in minimal essential medium (MEM) containing 5% dextran-coated charcoal-treated fetal calf serum (DCC-FCS), 1% non-essential amino acids, 10 IU/ml penicillin, 50 μg/ml streptomycin, and 100 nM dihydrotestosterone (DHT) (Steraloids).
(§5) Cells were plated in the same medium at a density of 75 000 cells/ml in 75 cm^2 flasks under an atmosphere of 5% carbon dioxide in air at 37° C. The medium was changed weekly. The steroids and antisteroids were dissolved in ethanol and kept in stock solutions chosen to yield final ethanol concentrations less than 0.01% in the culture medium.
(§6) Cells were subcultured at near-confidence by gentle digestion in a solution of 0.1% pancreatin (Flow Laboratories) in Hepes buffer containing 3 mM ethylenediaminetetraacetic acid (EDTA) (pH 7.2). Cells were pelleted by centrifugation, resuspended in culture medium, counted in a Coulter counter, and replated as described above. Soft agar cloning was performed as described (Stanley et al., Cell 10: 35-44, 1977) in the presence of 100 nM DHT.
(§7) Cells were plated in 24-well plates at a density of 20 000 cells/well. The indicated increasing concentrations of agents were added to triplicate dishes, and cells were grown for 10-12 days with changes of medium every 3-4 days. Cell number was measured by direct counting in a Coulter counter.
(§8) ED50 values of action of DHT and glucocorticoids were calculated according to a least-square regression as described (Rodbard, Endocrinology 94: 1427-1431, 1974). Statistical significance was calculated according to a multiple-range test (Kramer, Biometrics 12: 307-310,1956).

[3] = tested on: Shionogi mouse mammary carcinoma cells; test: Antiandrogenic activity: inhibition of DHT-induced proliferation of Shionogi cells; format: cell-based; details: Table 4′, DHT-induced proliferation
Protocol: The manner in which the inhibition is determined is described in “Other Tests; B-Androgenic/Antiandrogenic Activity”. Lower numbers are desirable. ND means that a determination was not done.
as §1, §2, §3, §4, §5, §6, §7, §8

[4] = target: T2, human type 5 17β-hydroxysteroid dehydrogenase (Homo sapiens, UniProt P42330); test: Inhibition of human type 5 17β-HSD activity in transfected 293 cells; format: cell-based; design: Inhibition Type V 17B-HSD % Inh. At 3 · 10^−7 (second value in parentheses): concentration or dose not given beside the values
T2 construct: screen again a human placental λgt11 cDNA to get the full length cDNA clone; expressed in transfected cells; host or cells: human embryonal kidney 293 cells (pCMV / pCMV-neo vector)
T2 sequence (P42330 1-323): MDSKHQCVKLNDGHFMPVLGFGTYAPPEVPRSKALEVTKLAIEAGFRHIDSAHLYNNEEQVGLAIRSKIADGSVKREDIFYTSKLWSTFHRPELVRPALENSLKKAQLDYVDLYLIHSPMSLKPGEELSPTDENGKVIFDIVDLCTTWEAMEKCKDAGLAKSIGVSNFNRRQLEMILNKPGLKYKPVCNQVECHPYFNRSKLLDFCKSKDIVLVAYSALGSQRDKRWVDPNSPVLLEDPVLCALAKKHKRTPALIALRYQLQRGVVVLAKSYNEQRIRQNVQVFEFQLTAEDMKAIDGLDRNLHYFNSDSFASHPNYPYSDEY
Protocol: The manner in which IC50 was determined is described in “Efficacy of the Preferred Inhibitors”. Lower numbers for IC50 are desirable.
Using a oligoprimer pair (5′-GGA-AAT-CGT-GAC-AGG-GAA-TGG-ATT-CCA-AAC-AG-3′, 5′-GGA-ATT-CTT-TAT-TGT-ATT-TCT-GGC-CTA-TGG-AGT-GAG-3′) derived from human aldoketoreductase (Qin et al., J. Steroid Biochem. Molec. Biol. 46: 673-679, 1993) and polymerase chain reaction (PCR), we have amplified from a human placental λgt11 cDNA library (Clontech Laboratories Inc., Palo Alto, Calif.) a cDNA fragment that was used as probe to screen again a human placental λgt11 cDNA to get the full length cDNA clone. The amplified cDNA fragment was purified on agarose gel and labeled with [α^32P]dCTP (Amersham Corp.) using the random primer labeling kit from Pharmacia Inc. PCR amplification reaction medium contained 50 mM KCl, 10 mM Tris-HCl, pH 8.3, 0.1% gelatin, 1 mM MgCl2, 250 μM dNTP, 0.25 μM oligonucleotide primers, and 200 ng of DNA prepared from human placental λgt11 cDNA library. The aqueous phase was overlaid with 75 μL of mineral oil to avoid evaporation. The mixture was heated at 98° C. for 5 min, following the temperature reduction to 72° C., 1 unit of Taq DNA polymerase was added. Using a DNA Thermal Cycler (Perkin-Elmer Corp.), 30 cycles of amplification were carried out using a step program (94° C., 1 min; 60° C., 1 min; and 72° C., 1 min)/cycle.
Approximately 5×10^5 recombinant phage plaques were screened with 1.5×10^6 cpm/ml of the probe. Prehybridization was performed for 4 h at 42° C. in 50% formamide, 5× Denhardt's solution (1× Denhardt's being 0.02% polyvinyl pyrrolidone, 0.02 Ficoll, 0.02 bovine serum albumin), 5×SSPE (1×SSPE being 0.18M NaCl, 10 mM NaH2PO4, pH 7.4, 1 mM EDTA), 0.1% SDS, and 100 μg/ml yeast tRNA. The probe was denatured by heating at 100° C. for 5 min, before being added to the hybridization solution at 42° C. overnight. Filters were then washed twice at room temperature in 2×SSC (1×SSC being […], pH 7.0), 0.1% SDS, and twice in 0.1×SSC, 0.1% SDS at 60° C. Positive recombinant plaques were purified by replating twice and grown in liquid culture. Phage DNA were isolated by centrifugation for 90 min at 105,000×g, and DNA was then isolated by phenol extraction and precipitation with isopropanol (Karen et al. 1987; In: Current Protocols in Molecular Biology (F. M. Ausubel, R. Brent, E. Kingston, D. D. Moore, T. G. Seidman, T. A. Smith and K. Struhl, eds), Wiley & Sons, New York, pp. 1.13.1-1.13.6).
The phage DNA were digested with EcoRI restriction enzymes and the resulting cDNA fragments were inserted into the EcoRI site downstream to the cytomegalovirus (CMV) promoter of the pCMV vector (kindly provided by Dr. Matthew, Cold Spring Harbor, N.Y., USA). Recombinant pCMV plasmids were amplified in Escherichia Coli DH5α competent cells, and were isolated by alkaline lysis procedure (Maniatis et al., In: Molecular cloning: a laboratory manual, Cold Spring Harbor Laboratory., 1982). Sequencing of double-stranded plasmid DNA was performed according to the dideoxy chain termination method (Sanger et al., PNAS 74: 5453-5467, 1977) using a T7 DNA polymerase sequencing kit (Pharmacia LKB Biotechnology). To avoid errors, all sequences were determined by sequencing both strands of the DNA. Oligonucleotide primers were synthesized in our laboratory with a 394 DNA/RNA synthesizer (Applied Biosystem).
The pCMV vector contain 576 nucleotides of the pCMV promoter (followed by 432 bp of small t intron (fragment 4713-4570) and poly adenylation signal (2825-2536)of SV40, followed by 1989 bp of the Pvu II(628)-AatII (2617) fragment from pUC 19 vector (New England Biolabs) that contains an E. Coli origin of replication and an ampicillin resistance gene for propagation in E. Coli. […]

CCC1(CC)CC[C@@]2(CC[C@H]3[C@@H]4CCc5cc(O)ccc5[C@H]4CC[C@@]32C)OC1=O [EM-1416, 1,3,5(10)-Estratrien-3-ol-17(R)-spiro-2′-(5′,5′-diethyl-6′-oxo)tetrahydropyran]
Inhibition Type 2 17β-HSD Activity [% Inh. at 3 · 10^−8M] [1]: [76] % | Androgenic Activity Shionogi, Basal E^−6 ([2]; Table 4′, E^−6): −4% | Androgenic Activity Shionogi, Basal E^−7 ([2]; Table 4′, E^−7): 28% | Antiandrogenic Activity Shionogi, DHT E^−6 ([3]; E^−6 (10^−6 M)): −41% | Antiandrogenic Activity Shionogi, DHT E^−7 ([3]; E^−7): 26%

CC(=O)O[C@]1(C(C)=O)CC[C@H]2[C@@H]3C=C(Cl)C4=CC(=O)CC[C@]4(C)[C@H]3CC[C@@]21C [chlormadinone acetate, reference compound]
inhibition of type 5 17β-hydroxysteroid dehydrogenase (in words) [4]: inhibit that type 5 enzyme

CC12CCC(=O)C=C1C=CC1C2CCC2(C)C(=O)C3CCCC3C12 (stereo not shown) [SA-208-59]
Inhibition Type V 17B-HSD % Inh. At 3 · 10^−7 (first value in parentheses) ([4]; first of two concentrations, 3 · 10^−7): (72% | Inhibition Type V 17B-HSD % Inh. At 3 · 10^−7 (second value in parentheses) ([4]; second of two concentrations, 3 · 10^−7): 88) %

CCCCCO[C@]1(C(C)=O)CC[C@H]2[C@@H]3C=C(C)C4=CC(=O)CC[C@]4(C)[C@H]3CC[C@@]21C [EM-1127, 6-Methyl-17α-pentyloxy-4,6-pregnadien-3,20-dione]
Inhibition Type V 17β-HSD % Inh. ([4]; at 3.10^−6): 91) % | Inhibition Type V 17β-HSD % Inh. ([4]; at 3.10^−7): (71% | Androgenic Activity Shionogi, Basal ([2]; E^−6): 92 | Androgenic Activity Shionogi, Basal ([2]; E^−7): 85

CC(=O)O[C@]1(C(C)=O)CC[C@H]2[C@@H]3C[C@H](C)C4=CC(=O)CC[C@]4(C)[C@H]3CC[C@@]21C [Medroxyprogesterone acetate, reference compound]
inhibition of type 5 17β-hydroxysteroid dehydrogenase (in words) [4]: inhibit that type 5 enzyme
